Experimental data taken from patent publication US8637554B2, “Methods for treating thyroid cancer” (The Trustees of the University of Pennsylvania, priority 2008, dated 2014).
Where “and” joins values, the source holds several entries; their conditions need not be identical. Equal entries are not always repeated. Entries after “also recorded” stand apart in the source; their conditions may differ.

Legend:
Type in all cases: in vivo, human
p-AKT = test: Immunohistochemistry of patient tumor tissue before and on sorafenib: p-AKT
Excerpt: (§1) Paraffin embedded tumor specimens from the patients' primary surgery and from lymph node biopsies after two weeks (Patient 1) and 17 months on treatment (Patient 2) were obtained. Thin (5 μm) sections from tumor tissue were cut and stained for the proliferation marker Ki-67 (Dakocytomation), and signaling markers p-ERK and p-AKT (Cell Signaling Technology) which are downstream indicators of BRAF and VEGFR2 activity. P-ERK is good reporter for BRAF activity, while p-AKT likely reflects signaling through several pathways including VEGFR. Slides were counterstained with hematoxylin and mounted in vectashield (Vector Labs). Two independent, blinded pathologists scored the slides based on intensity of stain and percent of cells staining positively.
(§2) Proliferation and cellular signaling in the tumor cell (TC) and the endothelial cell (EC) compartments were evaluated by immunohistochemistry (IHC).

[1] = tested on: metastatic papillary thyroid carcinoma (mPTC); test: Response by CT and PET scan in two patients with metastatic papillary thyroid carcinoma on sorafenib
Description: Patient 1: A person palpated a right-sided neck mass in August 2004. The patient underwent total thyroidectomy with lymph node dissection and pathology confirmed mPTC in one of eight lymph nodes. They were treated with ^131I and placed on thyroid hormone replacement. In August 2005, an enlarged lymph node was palpated in their neck.
Treatment began on Apr. 18, 2006. Toxicity was assessed at every four weeks and response to treatment was assessed using serial CT and PET scans.
Patient 2: A person presented with a sore throat in March 2002. Their physician noted only right sided cervical lymphadenopathy. […] Thyroidectomy and right neck lymph node dissection removed a 2.5 cm tall-cell PTC with 12 of 49 lymph nodes containing mPTC.
PET scans were obtained on a dedicated whole-body PET scanner (C-PET, Phillips). At FDG injection, patients had fasted for 6 hours and blood glucose levels were less than 150 mg/dL. Image acquisition started 60 min following intravenous administration of FDG at a dose of 1.85 MBq/kg (0.05 mCi/kg) body weight. A transmission scan was obtained for attenuation correction.

[2] = tested on: metastatic thyroid carcinoma; test: Open-label phase II study of oral sorafenib in metastatic thyroid carcinoma: best response by RECIST, PFS/TTP
Excerpt: Eligible patients were >18 years old with metastatic or unresectable thyroid carcinoma for which curative measures were no longer effective. Patients had evidence of measurable disease by RECIST criteria. All patients enrolled had evidence of disease progression in the year prior to initiation of treatment. Prior radioactive iodine treatments and one prior biologic treatment (kinase inhibitor, vaccine or antibody-based therapy) were allowed, but not within 3 weeks of treatment. […] Pre-menopausal women were required to have a negative pregnancy test and all patients of were required to use contraception.
Patients were ineligible if they had previous exposure to a Ras pathway inhibitor (including trastuzumab, EGFR inhibitors, farnesyl transferase inhibitors or MEK inhibitors) or were unable to swallow and retain oral pills. All patients provided written informed consent prior to enrollment on the trial. The study protocol was approved by the Institutional Review Board of the University of Pennsylvania.
(§3) This was an open-label, single institution phase II study of oral sorafenib in patients with metastatic thyroid carcinoma, including differentiated, poorly differentiated, medullary, and anaplastic subtypes. […] A cycle was defined as 4 weeks. Screening evaluations were completed within 2 weeks prior to the start of study drug, including medical history, demography, review of prior treatment, physical exam, 12-lead EKG, and laboratory evaluations including serum thyroid stimulating hormone (TSH) and thyroglobulin, and urinalysis. Radiological tests to identify target lesions were performed within 4 weeks of the first dose of study drug.
(§4) After beginning treatment, patients were followed at four-week intervals. At each visit, a history and physical examination were performed, and a CBC, chemistry panel, TSH and thyroglobulin drawn. Patients were assessed for new symptoms, compliance with study medications (pill count), and concomitant medications. Dose adjustments were made as needed for toxicity. Response was assessed radiographically after eight and sixteen weeks of treatment and every twelve weeks thereafter.
(§5) The study endpoints of best objective response rate and stable disease were measured based on the findings on computed tomography (CT) or magnetic resonance imaging (MRI) using RECIST. Additional endpoints included best response, duration of response and time to disease progression (TTP) on the basis of RECIST, clinical progression, or death. While TTP was the original endpoint, PFS and TTP were identical in this study, and PFS have been used in this report as it has become the more standard progression endpoint. All responses were confirmed by a study-designated radiologist. Adverse events were graded with the use of Common Terminology Criteria for Adverse Events, version 3.0 (CTCAE v3.0).
This study was designed to exclude the null hypothesis response rate of 5% using a Simon two-stage design; the first stage included 30 patients, with an optional second stage including 25 additional patients if at least one response was observed. The observed response rate was tested against the null rate of 5% using an exact test for binomial proportions. Estimates of PFS (time from beginning on study drug to earlier of progression or death) with associated 95% confidence intervals were obtained using the method of Kaplan and Meier. Comparison of PFS among histological subtypes was conducted using the logrank test. All enrolled patients who received at least one day of treatment were included in this intent-to-treat analysis.
2) Evidence of measurable disease by RECIST criteria 3) Any number of prior radioactive iodine treatments and up to one prior biologic treatment.
Primary Endpoint: Efficacy of sorafenib (objective response rate) in patients with metastatic thyroid carcinoma.
Patients on study were monitored with CT scans every 2 months and PET scans prior to beginning therapy and 4 weeks after starting treatment. […]

serum thyroglobulin = test: Serum thyroglobulin (sTG) monitoring in patients on sorafenib
Excerpt: as §3, §4
sTG levels are monitored monthly as part of the clinical trial. As sTG can rise due inadequate suppression of TSH, sTG levels are analyzed in the context of the serum TSH. In patients where […]. In addition, high levels of anti sTG antibodies can render the sTG levels un-interpretable. To date one patient has TSH that was not adequately controlled, and a second patient with anti sTG antibodies in excess of 1000 IU/ml. These patients are excluded from this analysis. sTG levels are correlated with clinical outcomes, and results of imaging and tissue analysis as described in the section on statistical analysis below.

Ki-67 = test: Immunohistochemistry of patient tumor tissue before and on sorafenib: Ki-67
Excerpt: as §1, §2

[3] = Phase II study of sorafenib: adverse events (CTCAE v3.0), dose changes, TSH
Excerpt: as §3, §4, §5

p-ERK = test: Immunohistochemistry of patient tumor tissue before and on sorafenib: p-ERK
Excerpt: as §1, §2

[4] = tested on: solid malignancies (tumor neovasculature); test: DCE-MRI (Ktr) in CA4P clinical trials
Description: The results in the CA4P trials were variable. In DCE-MRI, the rate constant Ktrans (Ktr), representing the rate of passage of gadolinium from the plasma into the tumor interstitium, is determined. Ktr itself is determined as a function of both tumor blood flow and vascular permeability, thus serving as a marker of the status of the tumor neovasculature.

[5] = Patient 1, after 2 weeks of treatment
[6] = Table 3 summary, 42 total / 31 evaluable patients
[7] = first 30 patients as of May 25, 2008, follow-up Kaplan-Meier analysis
[8] = first 30 patients, intention-to-treat
[9] = first 30 patients, intention-to-treat, 400 mg orally twice a day
[10] = Patient 2, after 17 months of treatment

SMILES: CNC(=O)c1cc(Oc2ccc(NC(=O)Nc3ccc(Cl)c(C(F)(F)F)c3)cc2)ccn1 [sorafenib]
- p-AKT staining in ECs (p-AKT; [5]): decreased
- p-AKT staining in TCs (p-AKT; [5]): did not show any change
- p-AKT staining in ECs and TCs (p-AKT; Patient 2, at 17 months): slight increase
- Progression-free survival ([1]; Patient 1): ≥ 1.3 years
- Decrease of target lesions (PR) ([1]; Patient 1, after 12 months): 30%
- Decrease in size of lung lesions by RECIST ([1]; Patient 1, after 12 weeks): 25%
- Progression-free survival ([1]; Patient 2): ≥ 3.7 years
- Maintained partial response ([1]; Patient 2, after 3.7 years on sorafenib): 70%
- Decrease of largest target lesion ([1]; Patient 2, after 12 weeks): 52%
- Decrease of largest target lesion ([1]; Patient 2, continued shrinkage after 20 weeks): 72%
- Clinical benefit (PR + SD) rate [2, 6]: 72%
- Clinical benefit (PR + SD), number of patients [2, 6]: 13
- Partial response (≧30%) rate [2, 6]: 24%
- Partial response (≧30%), number of patients [2, 6]: 10
- Stable disease rate [2, 6]: 48%
- Stable disease, number of patients [2, 6]: 19
- Overall median progression free survival ([2]; all 30 patients, Kaplan-Meier, analysis four months after last patient started): 79 weeks and 79.0 weeks
- DTC patients median progression free survival ([2]; differentiated thyroid cancers alone, Kaplan-Meier): 84 weeks
- Largest decrease in target lesions by RECIST (upper end of range of responses) ([2]; first 30 patients): 80%
- Median time to progression / PFS, all patients [2, 7]: 72 weeks
- Median time to progression / PFS, differentiated thyroid cancers (DTC) [2, 7]: 84 weeks
- Clinical benefit (PR + SD), number of patients [2, 8]: 23
- Partial response (PR, ≧30%), number of patients [2, 8]: 7
- Progressive disease as best response, number of patients [2, 8]: 2
- Progressive disease as best response, rate [2, 8]: (3%)
- Stable disease (SD), number of patients [2, 8]: 16
- Best response by RECIST: complete response rate [2, 9]: (0%)
- Best response by RECIST: complete response, number of patients [2, 9]: 0
- Decrease in size of visible shoulder nodule ([2]; patient with poorly differentiated thyroid cancer, at 4 weeks, before progression): 50%
- CT response of target lesions, lung metastases ([2]; person, follicular thyroid cancer, after 16 weeks, FIG. 3A): partial response
- CT burden of lung disease ([2]; person, papillary thyroid cancer, miliary lung metastases, after 33 weeks, FIG. 3B): marked improvement
- Disease symptoms (cough, dyspnea on exertion) ([2]; two patients of FIG. 3, within the first six months of treatment): complete resolution of their symptoms
- Patients with marked response in serum thyroglobulin levels (serum thyroglobulin; Seventeen of 19 patients with serial levels): 95%
- Thyroglobulin levels (serum thyroglobulin; approximately 15 new patients enrolled since November 2008, iodine non-avid metastatic thyroid cancer): increased
- Iodine uptake (serum thyroglobulin; inferred from thyroglobulin levels, iodine non-avid metastatic thyroid cancer): effective in increasing the iodine uptake
- Course of sTG early on treatment (serum thyroglobulin; most patients, first two to four months): falls precipitously; also recorded: dropped precipitously
- Initial decline of serum thyroglobulin (sTG) (serum thyroglobulin; patient 5, stably suppressed TSH, FIG. 4): 25 % baseline levels
- Mean decrease in serum thyroglobulin (serum thyroglobulin; within four months of starting treatment): 70%
- Ki-67 positive cells (Ki-67; Patient 1, tissue after two weeks of treatment (pre-treatment 1% of TCs)): less than 1%
- Ki-67 positive TCs versus pre-treatment (Ki-67; [10]): no change in the number of positive cells
- Patients requiring drug holidays due to adverse events ([3]; 30 patients): 63%
- Patients who discontinued treatment due to adverse events ([3]; 30 patients): 20%
- Patients who experienced some weight loss ([3]; 30 patients): 60%
- Patients with doses reduced to control toxicities ([3]; 30 patients): 47%
- Toxicity leading to withdrawal, single patients ([3]; CTCAE grade): grade 3 rash; also recorded: grade 2 fatigue; also recorded: grade 4 liver toxicity
- Severity of treatment-related adverse events ([3]; CTCAE v3.0): predominantly of grade 1 or 2
- Patients WD due to toxicity, number ([3]; Table 3 summary, 42 total patients): 2
- Outcome of LFT elevations after eight weeks, one patient ([3]; despite dose reductions and cessation): died of liver failure
- Patients with rise in serum TSH to levels greater than 0.10 mIU/L ([3]; while on sorafenib, 30 patients): 33%
- p-ERK staining in ECs (p-ERK; [5]): no longer detected
- p-ERK staining in TCs (p-ERK; [5]): decreased
- p-ERK expression in ECs (p-ERK; [10]): markedly increased
- p-ERK staining in TCs (p-ERK; [10]): unchanged

SMILES: COc1ccc(/C=C\c2cc(OC)c(OC)c(OC)c2)cc1OP(=O)(O)O [CA4P]
- Ktr response ([4]; certain patients, larger pre-treatment tumor Ktr values, incl. two with thyroid cancer): Strong Ktr responses
- Ktr response ([4]; other patients): little or no effect
